Key:
Format in all cases: binding
hSERT transporter = target: T1, hSERT transporter (Homo sapiens, UniProt P31645); assay: Human serotonin transporter (hSERT) scintillation proximity assay, competition with [3H]-Citalopram; details: membranes of HEK-293 cells expressing recombinant hSERT, Cheng-Prusoff
T1 construct: expressed in transfected cells; membrane preparation
Procedure: The screening assay of this example was used to determine the affinity of ligands at the hSERT transporter by competition with [^3H]-Citalopram.
Scintillation Proximity Assay (SPA) works by bringing radioligand within close proximity to the bead's scintillant to stimulate light emission. In this assay, the receptor-containing membranes were pre-coupled to the SPA beads and the binding of the appropriate radioligand to the transporter was measured. The light emission was proportional to the amount of bound radioligand. Unbound radioligand produced no signal as a result of distant proximity to scintillant (lack of energy transfer). […]
(§1) Cell membranes were prepared using a membrane preparation buffer of 50 mM TRIS (pH 7.4). […] After a second centrifugation, the pellet was re-homogenized and brought to a final volume determined during the assay. […]
The % inhibition was calculated for each compound tested [(Compound counts per minute (CPM) at maximum concentration-Non-Specific CPM)/Total CPM*100]. […]
(§2) [formula] where max=total binding, min=non specific binding, x=concentration (M) of the tested compound and n=Hill slope. The inhibition dissociation constant (Ki) of each compound was determined according to the method of Cheng-Prusoff and then converted into negative logarithm (pKi) of the Ki.

hNET transporter = target: T2, hNET transporter (Homo sapiens, UniProt P23975); assay: Human norepinephrine transporter (hNET) scintillation proximity assay, competition with [3H]-Nisoxetine; details: membranes of HEK-293 cells expressing recombinant hNET, Cheng-Prusoff
T2 construct: expressed in transfected cells; membrane preparation
T2 sequence (P23975 whole entry): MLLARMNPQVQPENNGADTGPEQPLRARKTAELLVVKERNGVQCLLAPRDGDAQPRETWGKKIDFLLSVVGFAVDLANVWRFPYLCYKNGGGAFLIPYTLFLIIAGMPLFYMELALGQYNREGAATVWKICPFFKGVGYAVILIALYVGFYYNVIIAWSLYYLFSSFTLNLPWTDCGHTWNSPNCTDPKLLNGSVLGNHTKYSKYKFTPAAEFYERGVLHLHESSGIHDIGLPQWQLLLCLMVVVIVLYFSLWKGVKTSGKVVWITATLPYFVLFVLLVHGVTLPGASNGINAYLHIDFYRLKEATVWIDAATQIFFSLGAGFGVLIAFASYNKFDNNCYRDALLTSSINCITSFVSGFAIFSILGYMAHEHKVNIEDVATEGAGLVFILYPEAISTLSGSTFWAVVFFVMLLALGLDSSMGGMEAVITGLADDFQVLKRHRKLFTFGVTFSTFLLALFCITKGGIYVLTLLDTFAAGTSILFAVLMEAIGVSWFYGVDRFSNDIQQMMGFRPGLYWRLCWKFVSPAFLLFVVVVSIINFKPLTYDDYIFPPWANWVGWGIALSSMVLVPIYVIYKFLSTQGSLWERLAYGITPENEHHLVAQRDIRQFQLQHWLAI
Procedure: This assay was used to determine the affinity of ligands for the hNET transporter by competition with [^3H]-Nisoxetine. As in the hSERT assay of the above example, receptor-containing membranes were pre-coupled to the SPA beads and the binding of the appropriate radioligand to the transporter was measured. The light emission was proportional to the amount of bound radioligand, with unbound radioligand producing no signal.
HEK-293 cells (Tatsumi et al., Eur. J. Pharmacol. 1997, 30, 249-258) stably expressing recombinant hNET (Clone: HEK-hNET #2) were maintained with media (DMEM hi glucose with 10% FBS, 300 μg/ml G418 and 2 mM L-Glutamine) and incubated at 37° C. with 5% CO2. Cells were released from culture flasks using PBS for 1-2 minutes. […]
as §1
^3[H] […] The mixtures were allowed to stand at room temperature for one hour, and were then counted on a Packard TopCount LCS, a generic SPA counting protocol settings (Energy Range: Low, Efficiency Mode: Normal, Region A: 1.50-35.00, Region B: 1.50-256.00, Count Time (min.): 0.40, Background Subtract: none, Half-Life Correction: no, Quench Indicator: tSIS, Platemap blank subtraction: No, Cross talk reduction: Off). […]

[1] = target: T3, human dopamine transporter (hDAT) (Homo sapiens, UniProt Q01959); assay: Human dopamine transporter scintillation proximity assay, competition with [3H]-Vanoxerine; details: HEK-293 cells expressing recombinant hDAT; [3H]-Vanoxerine (GBR 12909); Cheng-Prusoff
T3 construct: expressed in transfected cells; whole cells plated on Cell-Tak coated 96 well plates
T3 sequence (Q01959 whole entry): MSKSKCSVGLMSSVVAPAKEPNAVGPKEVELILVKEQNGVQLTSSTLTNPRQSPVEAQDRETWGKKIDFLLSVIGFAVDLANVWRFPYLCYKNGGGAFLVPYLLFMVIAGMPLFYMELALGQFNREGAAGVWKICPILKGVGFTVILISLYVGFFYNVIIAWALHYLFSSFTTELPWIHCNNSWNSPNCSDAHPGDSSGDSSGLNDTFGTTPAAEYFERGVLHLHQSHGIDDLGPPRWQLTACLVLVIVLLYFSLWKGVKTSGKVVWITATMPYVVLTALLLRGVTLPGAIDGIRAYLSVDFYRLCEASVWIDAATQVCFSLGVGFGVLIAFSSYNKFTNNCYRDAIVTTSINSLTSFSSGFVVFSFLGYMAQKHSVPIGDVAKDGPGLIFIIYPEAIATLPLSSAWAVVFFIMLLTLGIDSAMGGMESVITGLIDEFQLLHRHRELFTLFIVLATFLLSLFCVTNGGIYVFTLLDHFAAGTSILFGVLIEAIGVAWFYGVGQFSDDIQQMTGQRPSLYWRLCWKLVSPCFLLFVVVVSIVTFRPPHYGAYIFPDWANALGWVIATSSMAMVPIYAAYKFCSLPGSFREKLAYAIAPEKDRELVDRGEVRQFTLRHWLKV
Procedure: This assay was used to determine the affinity of ligands for the dopamine transporter by competition with [^3H]-Vanoxerine.
HEK-293 cells (Tatsumi et al., Eur. J. Pharmacol. 1997, 30, 249-258) stably expressing recombinant hDAT were maintained with media (DMEM hi glucose with 10% FBS, 300 μg/ml G418 and 2 mM L-Glutamine) and incubated at 37° C. with 5% CO2. Cells were plated four hours prior to experiment by placing approximately 30,000 cells per well (in PBS) on white, opaque Cell-Tak coated 96 well plates. Extra buffer was apriated from the cell plates using an ELx405 plate washer.
^3[H] vanoxerine (GBR 12909) radioligand, specific activity approximately 59 Ci/mmol, stock concentration, 400 nM, and 50 mM Tris-HCl, 300 mM NaCl, (pH 7.4) buffers were used for Scintillation Proximity Assay IC50/Ki determination. […]
The % inhibition was calculated for each compound tested [(Compound CPM at maximum concentration-Non-Specific CPM)/Total CPM*100]. […]
as §2

T1 sequence (P31645 whole entry): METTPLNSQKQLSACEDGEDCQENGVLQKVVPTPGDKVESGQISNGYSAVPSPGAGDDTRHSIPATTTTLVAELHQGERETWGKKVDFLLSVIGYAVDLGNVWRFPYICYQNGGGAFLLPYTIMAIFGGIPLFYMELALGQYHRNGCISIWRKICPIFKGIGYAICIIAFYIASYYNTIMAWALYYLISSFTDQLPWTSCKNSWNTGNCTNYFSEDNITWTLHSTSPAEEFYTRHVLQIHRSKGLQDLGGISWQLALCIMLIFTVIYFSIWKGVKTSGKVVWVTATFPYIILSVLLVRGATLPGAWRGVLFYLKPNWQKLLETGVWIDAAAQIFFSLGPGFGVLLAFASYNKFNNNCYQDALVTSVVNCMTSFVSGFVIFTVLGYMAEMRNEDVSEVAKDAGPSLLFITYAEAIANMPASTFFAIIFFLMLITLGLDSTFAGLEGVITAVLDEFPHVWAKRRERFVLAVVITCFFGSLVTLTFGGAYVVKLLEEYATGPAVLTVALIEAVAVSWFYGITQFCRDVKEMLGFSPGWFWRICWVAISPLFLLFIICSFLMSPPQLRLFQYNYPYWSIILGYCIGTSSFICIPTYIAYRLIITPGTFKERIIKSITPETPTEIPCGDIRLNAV

## c1ccc2c(c1)CNCCC2c1ccc2[nH]ccc2c1 (stereo not drawn) [5-(1H-Indol-5-yl)-2,3,4,5-tetrahydro-1H-benzo[c]azepine]
hSERT transporter
  Ki: ~126 nM
hNET transporter
  Ki: ~10 nM
[1]
  Ki: ~2 nM
